According to patent publication US10906876B2, “Tetrahydroisoquinolines as selective NADPH oxidase 2 inhibitors” (University of Pittsburgh—Of the Commonwealth System of …, priority 2013, dated 2021):

Target: T1, Nox4 (Homo sapiens, UniProt Q9NPH5)
T1 construct: Plasmids encoding full-length human cDNAs for Nox1 (pcDNA3.1-hNox1), NOXO1 (pcDNA3.1-hNOXO1), NOXA1 (pCMVsport 6-hNOXA1), p47phox (pCMV-Tag4A-hp47) and Nox4 (pcDNA3-hNox4); expressed in transfected cells; host or cells: COS-22 (COS-7 stably expressing human p22phox), transient transfection with pcDNA3.1/Hygro-hNox4
T1 sequence (Q9NPH5 1-578): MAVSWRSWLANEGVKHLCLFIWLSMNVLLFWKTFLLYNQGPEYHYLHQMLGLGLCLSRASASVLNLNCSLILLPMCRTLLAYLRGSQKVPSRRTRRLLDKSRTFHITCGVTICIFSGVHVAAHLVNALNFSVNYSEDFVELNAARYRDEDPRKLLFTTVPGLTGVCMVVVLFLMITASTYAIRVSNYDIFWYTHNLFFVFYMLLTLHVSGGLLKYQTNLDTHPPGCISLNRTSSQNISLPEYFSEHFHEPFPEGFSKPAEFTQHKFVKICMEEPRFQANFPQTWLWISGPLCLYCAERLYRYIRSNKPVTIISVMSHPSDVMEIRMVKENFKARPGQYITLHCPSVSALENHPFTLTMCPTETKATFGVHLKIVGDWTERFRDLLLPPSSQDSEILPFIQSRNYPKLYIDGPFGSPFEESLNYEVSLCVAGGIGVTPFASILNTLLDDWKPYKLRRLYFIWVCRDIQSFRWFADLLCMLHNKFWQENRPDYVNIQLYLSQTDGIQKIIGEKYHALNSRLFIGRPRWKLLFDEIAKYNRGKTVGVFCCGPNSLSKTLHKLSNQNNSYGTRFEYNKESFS
T1 sequence (P13498 2-195 partner limits assumed): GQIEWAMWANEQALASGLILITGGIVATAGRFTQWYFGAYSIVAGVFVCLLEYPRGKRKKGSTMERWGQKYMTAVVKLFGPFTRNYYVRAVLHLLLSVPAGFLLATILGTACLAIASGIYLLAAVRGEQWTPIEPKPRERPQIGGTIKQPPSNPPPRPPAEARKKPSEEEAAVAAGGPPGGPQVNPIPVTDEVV
Assay: Constitutive Nox4 activity in transiently transfected COS-Nox4 cells, Amplex Red assay
Assay type: cell-based
Settings: for Nox4 inhibitory activity: COS-Nox4 cells; for IC50: constitutive activity, transiently transfected COS-Nox4 cells, read-out: IC50 of ROS generation, Nox4 (Amplex Red assay)
Excerpt: Plasmids encoding full-length human cDNAs for Nox1 (pcDNA3.1-hNox1), NOXO1 (pcDNA3.1-hNOXO1), NOXA1 (pCMVsport 6-hNOXA1), p47phox (pCMV-Tag4A-hp47) and Nox4 (pcDNA3-hNox4) were kindly provided by Dr. David Lambeth (Emory University, Ga.). Plasmids encoding Nox1, NOXO1, or NOXA1 were transformed and amplified into Escherichia coli strain TOP10 (Invitrogen, Carlsbad, Calif.). Plasmids were purified using a QIAfilter plasmid purification kit (QIAGEN Inc., Valencia, Calif.). For human Nox4 expression, the BglII/NotI restriction fragment from the pcDNA3-hNox4 was subcloned into the plasmid pcDNA3.1/Hygro(−) (Invitrogen, Carlsbad, Calif.) to generate pcDNA3.1/Hygro-hNox4. The fragment sequence, in-frame insertion and orientation were validated by DNA sequencing after PCR amplification. pcDNA3.1/Hygro-hNox4 was amplified into Escherichia coli strain TOP10 and purified with a QIAfilter plasmid purification kit.
Cell transfection was carried out using Lipofectamine LTX and Plus reagent (Invitrogen, Carlsbad, Calif., USA), according to the manufacturer's instructions. COS-22 cells were transiently co-transfected with pcDNA 3.1-hNox1, pCMVsport 6-hNOXA1 and pcDNA3.1-hNoxO1 (COS-Nox1/NOXO1/NOXA1 cells) or with pcDNA3.1/Hygro-hNox4 (COS-Nox4 cells). Cells were used 24 hr after transfection. Adherent cells were harvested by incubating with 0.05% trypsin/EDTA for 5 min at 37° C. Following addition of DMEM/10% FBS to neutralize the trypsin, the cells were pelleted by centrifugation at 1100×g for 5 min at 4° C. and used for the experiments.
H2O2 production was quantified in intact COS-Nox4 cells by Amplex® Red. Briefly, COS-Nox4 cells (5×10^4 cells/ml) were re-plated into 384-well plate in assay buffer (25 mM Hepes, pH 7.4, containing 0.12 M NaCl, 3 mM KCl, 1 mM MgCl2). The cells were incubated in the presence or absence of drugs at 37° C. in assay buffer supplemented with 0.1 mM Amplex® Red, and 0.32 U/ml of horse radish peroxidase (HRP) for 15 min. Fluorescence measurements were made using a Biotek Synergy 4 Hybrid Multi-Mode Microplate Reader with a 530/25-excitation and a 590/35-emission filter. The reaction was monitored at 37° C. for 1 h. A standard curve of known H2O2 concentrations was included on each plate. Nox4 activity was obtained by calculating the rate of H2O2 production as RFU/min and then subtracting the equivalent value given by non-transfected COS-22 cells. Similarly, H2O2 production by Nox2 cells was also measured by Amplex® Red as described above but in the presence of 150 U/mL of SOD and the reaction was initiated by addition of 5 μM PMA. The rate of H2O2 production in this case was calculated as RFU/min after the subtraction of the equivalent value given by non-stimulated cells. Data are expressed as % of vehicle control.
All data are expressed as means±SEM. IC50 values were determined using the GraphPad Prism software (GraphPad Software, San Diego, Calif.) for non-linear regression three-parameters, with constrain values of 100 and 0 for top and bottom, respectively, and assumes a Hill slope of 1.

Row | SMILES | Nox4 inhibitory activity | IC50 [µM]
1 | C=C(C)CC1NC2CC(C)(C)C1c1c(Br)cccc12 (racemic) [Compound 7, (±)-(1S,4R,9S)-5-Bromo-3,3-dimethyl-9-(2-methylallyl)-1,2,3,4-tetrahydro-1,4-(epimino-methano)-naphthalene] | inactive | > 100
2 | C=C(C)CC1NC2CC(C)(C)C1c1ccccc12 (racemic) [Compound 8, (±)-(1S,4R,9S)-3,3-Dimethyl-9-(2-methylallyl)-1,2,3,4-tetrahydro-1,4-(epiminomethano)-naphthalene] | inactive | 
3 | C=C(C)CC1C2c3ccccc3C(CC2(C)C)N1Cc1cccc(F)c1 (racemic) [Compound 11a, (±)-(1S,4R,9S)-10-(3-Fluorobenzyl)-3,3-dimethyl-9-(2-methylallyl)-1,2,3,4-tetrahydro-1,4-(epiminomethano)naphthalene] |  | > 100
4 | C=C(C)CC1C2c3c(Br)cccc3C(CC2(C)C)N1Cc1ccc2c(c1)OCO2 (racemic) [Compound 11d, (±)-(1S,4R,9S)-10-(Benzo[d][1,3]dioxol-5-ylmethyl)-5-bromo-3,3-dimethyl-9-(2-methylallyl)-1,2,3,4-tetrahydro-1,4-(epiminomethano)naphthalene] |  | > 100
5 | C=C(C)CC1C2c3c(Br)cccc3C(CC2(C)C)N1Cc1cc(C)on1 (racemic) [Compound 11e, (±)-3-(1S,4R,9S)-5-Bromo-3,3-dimethyl-9-(2-methylallyl)-1,2,3,4-tetrahydro-1,4-(epimino-methano) naphthalen-10-yl)methyl)-5-methylisoxazole] |  | > 100
6 | C=C(C)CC1C2c3c(Br)cccc3C(CC2(C)C)N1Cc1cccc(F)c1 (racemic) [Compound 11f, (±)-(1S,4R,9S)-5-Bromo-10-(3-fluorobenzyl)-3,3-dimethyl-9-(2-methylallyl)-1,2,3,4-tetrahydro-1,4-(epiminomethano)naphthalene] |  | > 100
7 | C=C(C)CC1C2c3c(Br)cccc3C(CC2(C)C)N1CCCCC (racemic) [Compound 11g, (±)-(1S,4R,9S)-5-Bromo-3,3-dimethyl-9-(2-methylallyl-10-pentyl-1,2,3,4-tetrahydro-1,4-(epiminomethano)naphthalene] | virtually no effect | > 100
8 | C=C(C)CC1C2c3c(Br)cccc3C(CC2(C)C)N1Cc1cccs1 (racemic) [Compound 11h, (±)-(1S,4R,9S)-5-Bromo-3,3-dimethyl-9-(2-methylallyl)-10-(thiophen-2-ylmethyl)-1,2,3,4-tetrahydro-1,4-(epiminomethano)naphthalene] | virtually no effect | 
9 | C=C(C)CC1NC2CC(C)(C)C1c1c(-c3ccc(Cl)c(Cl)c3)cccc12 (racemic) [Compound 12a, (±)-(1S,4R,9S)-5-(3,4-Dichlorophenyl)-3,3-dimethyl-9-(2-methylallyl)-1,2,3,4-tetrahydro-1,4-(epiminomethano)naphthalene] |  | > 100
10 | C=C(C)CC1C2c3c(-c4ccc(Cl)c(Cl)c4)cccc3C(CC2(C)C)N1CCCCC (racemic) [Compound 12c] |  | > 100
11 | CC(C)CC1NC2CC(C)(C)C1c1c(Br)cccc12 (racemic) [Compound 13] |  | > 100
12 | C=C(C)CC1C2c3c(Br)cccc3C(CC2(C)C)N1S(C)(=O)=O (racemic) [Compound 14a, (±)-(1S,4R,9S)-5-Bromo-3,3-dimethyl-9-(2-methylallyl)-10-(methylsulfonyl)-1,2,3,4-tetrahydro-1,4-(epiminomethano)naphthalene] |  | > 100
